One data set relates to human normal fibroblasts. Briefly: Toxicity in human normal fibroblasts. Format: cell-based.
A further data set deals with K562 cells. Briefly: Antiproliferative activity on human cell line K562. The format is cell-based. Particulars: for IC50: Homo sapiens, K562, read-out: Cellular Data (IC50, μM) K562.
In data set [1] the test system is Fyn mediated phosphorylation of residue Tyr18 in Tau protein. Kind of data set: Aβ42 induced Tyr18-Tau phosphorylation in differentiated SH-SY5Y cells. As to conditions: for duration of inhibitory activity on Tau phosphorylation: after compound administration; for Aβ42 induced Tyr18-Tau phosphorylation: dose dependent. The format is cell-based, human. Here is the method: The neuroblastoma cell line SH-SY5Y was cultured in media obtained by mixing equal volume of MEM and HAM F12 supplemented with 15% fetal calf serum (FCS, Australian origin, Lonza), 100 U/ml penicillin, 100 μg/ml streptomycin and 2 mM L-glutamine (all from Euroclone) at 37° C. in humidified air with 5% CO2. The medium was changed every 48 hours. Cells were split at about 80% confluence and never cultured beyond passage 20. Cell differentiation was achieved by pre-treating for 5 days the SH-SY5Y cells with media containing 1% FCS and 10 μM retinoic acid (RA, Sigma Aldrich). Subsequently cells were treated for other 7 days in media with no serum and supplemented with 50 ng/ml of human recombinant brain derived neurotrophic factor (BDNF, Peprotech), 10 ng/ml human recombinant beta nerve growth factor (NGF, Peprotech), 10 ng/ml neuregulin 1 beta 2 protein (NRG, Abcam) and 9.35 μg/ml vitamin D3 (Sigma Aldrich). To confirm full neuronal differentiation, the expression of mature isoforms of Tau were checked. Differentiated cells were treated for 1.5, 3 and 6 hours with media containing 10 μM Aβ42 oligomer/protofibrils and N2 supplement (Life Technologies), in the presence or in the absence of Fyn inhibitors dissolved in DMSO. As control, cells were treated with media containing equivalent amounts of DMSO.
Briefly, Aβ42 peptides (Sigma) were dissolved in 1,1,1,3,3,3-hexafluoro-2-propanol and lyophilized to completely remove the solvent. Lyophilized Aβ42 peptides were reconstituted in DMSO to a working concentration of 10 mM, diluted 1:100 using HAM F12 (without phenol red and glutammine), vortexed for 15 sec and incubated 24 hours at 4° C. A042 oligomer/protofibrils were visualized by SDS-PAGE and silver staining.

A short description of a further data set: PAMPA, BBB permeability. Particulars: for PAMPA BBB (MR %): Membrane Retention; for Papp at 5 h, 0.5 mM: PAMPA, pH 7.4. A general note: PAMPA measures passive passage across an artificial lipid membrane.
The nature of data set [2]: In vivo pharmacokinetics / biodistribution. On the set-up: species or system mice. As to conditions: 50 mg/Kg i.p.; for Quantity of Compound, BLOOD / Quantity of Compound, BRAIN: administered compound itself, BALB/C mice.
Description: The animal protocols used were reviewed and approved by the Animal Care and Ethics Committee of the Universita{grave over ( )} degli Studi di Siena, Italy. Male BALB/C mice (weight 20-30 g) were obtained from Charles River (Milan, Italy). […] The blood, previously heparinized, was centrifuged at 4000 rpm for 20 minutes to separate the plasma fraction and then 500 μl were collected in a test tube. […] Samples were centrifuged at 4000 rpm for 20 minutes, the supernatant was recovered, dried under vacuum and analyzed by LC-UV-MS. Brain was homogenized using a glass/glass Potter-Elvehjem homogenizer in presence of Tris-HCl buffer (50 mM) and compounds were recovered using 7 mL of ACN then treated as previously described for blood samples.
Data set [3] can be described thus: Stability tests in phosphate buffer and methanol. Particulars: 20° C., 48 h incubation. Format: physicochemical.
A further data set relates to U87 cells. Briefly: Orthotopic mouse model of GBM. Particulars: 50 mg/kg three times per week for 4 weeks. The format is in vivo, mice.
Data set [4] in a line: Enzymatic stability in human plasma. The format is in vitro ADME. As to conditions: human, pooled human plasma diluted with phosphate buffer, pH 7.4; 37° C.; read-out: Stability Human Plasma t1/2 (converted).
Data set [5] in a line: PAMPA, intestinal (GI) permeability. As to conditions: for PAMPA GI (MR %): Membrane Retention.
Description: (§1) Donor solution (0.5 mM) was prepared by diluting 1 mM dimethylsulfoxide (DMSO) compound stock solution using phosphate buffer (pH 7.4, 0.025 M). […] Donor solution (150 μL) was added to each well of the filter plate. To each well of the acceptor plate were added 300 μL of solution (50% DMSO in phosphate buffer). All compounds were tested in three different plates on different days. The sandwich was incubated for 5 h at room temperature under gentle shaking. After the incubation time, the plates were separated, and samples were taken from both receiver and donor sides and analyzed using LC with UV detection at 280 nm.
(§2) Permeability (Papp) for PAMPA was calculated according to the following equation, obtained from Wohnsland and Faller^27 and Sugano et al.^28 equation with some modification in order to obtain permeability values in cm s^−1,
(§3) Drug concentration is estimated by using the peak area integration. Membrane retentions (%) were calculated according to the following equation:
(§4) where r is the ratio between drug concentration in the acceptor and equilibrium concentration, D, A, and Eq represented drug concentration in the donor, acceptor and equilibrium solution, respectively.
(§5) Donor solution of tested compounds (0.5 mM) was prepared by diluting 1 mM dimethylsulfoxide (DMSO) compound stock solution using phosphate buffer (pH 7.4, 25 mM). […] Donor solution (150 μL) was added to each well of the filter plate. To each well of the acceptor plate were added 300 μL of solution (50% DMSO in phosphate buffer). Compounds was tested in three different plates on different days. The sandwich was incubated for 5 h at room temperature under gentle shaking.
(§6) Permeability (Papp) for PAMPA was calculated according to the following equation, obtained from Wohnsland and Faller and Sugano et al.^27, 28.
(§7) Drug concentration is estimated by using the peak area integration. Membrane retention (%) was calculated according to the following equation:
A short description of another data set: Water solubility assay. Particulars: water, 20 °C, thermodynamic from solid.
The target of the next data set is recombinant Fyn (Homo sapiens, UniProt P06241). Briefly: Enzymatic assay on isolated Fyn kinase.
The target in the next data set is T1, Recombinant human Src (Homo sapiens, UniProt P12931).
T1 construct: purchased Upstate (Lake Placid, N.Y.)
Kind of data set: Enzymatic assay on isolated Src. The format is biochemical. As to conditions: mean of at least two experiments; read-out: Enzymatic Data (Ki, μM) c-Src.

In data set [6] the test system is SH-SY5Y cells. Briefly: Spheroid growth assay (SH-SY5Y). The format is cell-based. As to conditions: Homo sapiens; SH-SY5Y Neuroblastoma cell spheroid; read-out: Cellular Data (IC50, μM) SH-SY5Y.
Description: The in vitro antitumoral action of inhibitors was evaluated by neuroblastoma spheroid assay. The SH-SY5Y cell line was utilized as cell model of human neuroblastoma. Cells were purchased from American Type Culture Collection (ATCC, Manassas, Va., USA) and were cultured in DMEM medium supplemented with 10% Fetal Bovine Serum. IBIDI angiogenesis micro-slides (IBIDI GmbH) coated with growth factor reduced Matrigel (BD, Bioscience) and allowed to polymerize for 30 minutes. SH-SY5Y cells were seeded in a 96-multiwell plate in the presence or not (CTR) of inhibitors. […] The size of cellular spheres, in terms of area and diameter, was determined using an Image Pro-plus v 4.5 analysis system considering 5 random fields/treatment (400× magnification).
Antitumoral effect was also tested by spheroid formation assay.
The subject of data set [7] is SH-SY5Y cells. As to conditions: previously reported (ref 20); read-out: antiproliferative effect on SH-SY5Y NB cells (IC50); cited from earlier work.
A short description of data set [8]: Microsomal stability assay. As to conditions: percentage of unmodified drug, Table 8.

In brackets after ≈: the same amount, converted by molar mass. Read-outs that look alike come from different tables or passages of the source. Where only a bound is given, the exact number is not on record here.

Sequence of recombinant Fyn (P06241 whole entry, looked up): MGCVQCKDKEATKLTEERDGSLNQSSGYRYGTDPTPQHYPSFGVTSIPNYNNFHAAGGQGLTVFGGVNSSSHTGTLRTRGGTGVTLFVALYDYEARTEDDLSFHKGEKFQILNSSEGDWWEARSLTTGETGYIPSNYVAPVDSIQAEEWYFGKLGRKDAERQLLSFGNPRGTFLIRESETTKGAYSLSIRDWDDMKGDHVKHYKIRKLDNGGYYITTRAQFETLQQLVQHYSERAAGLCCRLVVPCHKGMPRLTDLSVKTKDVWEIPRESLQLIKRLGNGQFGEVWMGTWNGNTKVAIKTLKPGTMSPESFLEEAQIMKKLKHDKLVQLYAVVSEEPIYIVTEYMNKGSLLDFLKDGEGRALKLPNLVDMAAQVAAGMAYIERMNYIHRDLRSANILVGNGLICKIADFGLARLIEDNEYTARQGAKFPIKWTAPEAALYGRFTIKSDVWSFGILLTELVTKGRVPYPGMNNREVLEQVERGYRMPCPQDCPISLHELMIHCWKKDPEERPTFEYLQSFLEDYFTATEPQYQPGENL
T1 sequence (P12931 whole entry): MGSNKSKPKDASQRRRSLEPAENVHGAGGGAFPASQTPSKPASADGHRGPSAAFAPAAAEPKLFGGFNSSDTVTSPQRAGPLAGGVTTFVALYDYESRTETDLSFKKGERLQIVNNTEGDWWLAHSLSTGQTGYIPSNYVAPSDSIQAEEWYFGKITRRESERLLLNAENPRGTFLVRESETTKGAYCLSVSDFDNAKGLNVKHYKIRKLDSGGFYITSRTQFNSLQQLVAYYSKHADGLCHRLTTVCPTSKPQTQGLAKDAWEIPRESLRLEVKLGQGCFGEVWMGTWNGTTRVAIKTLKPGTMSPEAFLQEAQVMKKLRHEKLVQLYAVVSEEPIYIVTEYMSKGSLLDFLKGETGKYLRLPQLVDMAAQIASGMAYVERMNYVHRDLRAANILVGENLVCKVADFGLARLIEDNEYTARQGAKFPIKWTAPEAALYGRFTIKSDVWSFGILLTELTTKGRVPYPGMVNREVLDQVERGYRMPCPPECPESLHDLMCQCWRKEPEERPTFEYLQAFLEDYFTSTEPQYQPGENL
Description for K562 cells: In vitro experiments were carried out using the human Chronic Myelogeneous Leukemia cell line K562. Cells were purchased from American Type Culture Collection (ATCC, Manassas, Va., USA) and were cultured in RPMI medium supplemented with 10% Foetal Bovine Serum. […] Cell number and vitality were evaluated using the automatic cell counter NucleoCounteri (Chemometec, Denmark). Results from the NucleoCounter represented either total or non-viable cell concentration, depending on the sample preparation indicated by manufacturer.
In vitro experiments were carried out using the human Chronic Myelogeneous Leukemia cell line K562. Cells were purchased from American Type Culture Collection (ATCC, Manassas, Va., USA) and were cultured in RPMI medium supplemented with 10% Foetal Bovine Serum. […] Cell number and vitality were evaluated using the automatic cell counter NucleoCounter® (Chemometec, Denmark). Results from the NucleoCounter represented either total or non-viable cell concentration, depending on the sample preparation indicated by manufacturer.
Description for PAMPA, BBB permeability: as §1, §2, §3, §4, §5, §6, §7
Excerpt for Recombinant human Src: Recombinant human Src was purchased from Upstate (Lake Placid, N.Y.).
Description for U87 cells: Survival curves (days) of orthotopic mouse model of GBM.
Male CD1 nude mice (Charles River, Milan, Italy) were maintained under the guidelines established by University of L'Aquila, Medical School and Science and Technology School Board Regulations, complying with the Italian government regulations for the use of laboratory animals. Before any invasive manipulation, mice were anesthetized with a mixture of ketamine (25 mg/ml)/xylazine (5 mg/ml). Tumor grafts were obtained by injecting with a Hamilton syringe mounted on a stereotactic instrument, 2*10^3 U87 cells resuspended in 2 microL PBS (David Kopf Instruments, CA, USA). The cells were injected after the exposition of periosteal cranic site and the drimming of a 1 mm diameter hole localized at 4 mm from striatum and with a depth of 4 mm. The wound was treated with antibiotics and was surgically sutured.
Description for recombinant Fyn: Kinase assays were performed in presence of 200 μM ATP and 100 μM peptide substrate. All inhibition assays were conducted with 0.01 μg active kinase, 0.33 μmol [^γ32P]ATP, 60 mM HEPES-NaOH pH 7.5, 3 μM Na-orthovanadate, 1.2 mM DTT, 50 μg/ml PEG20.0000, 10 mM magnesium acetate, 0.004% NP40 and 10% DMSO in a final volume of 10 μL. Fyn and inhibitors were preincubated in ice for 5 min; after addition of the substrates the reaction was conducted at 30° C. for 10 min. The reaction was stopped by adding 5 μL of 3% phosphoric acid. Aliquots (10 μL) were then transferred into a P30 Filtermat (PerkinElmer), washed five times with 75 mM phosphoric acid and once with acetone for 5 minute. The filter was dried and transferred to a sealable plastic bag, and scintillation cocktail (4 mL) was added. Spotted reactions were read in a MicroBeta Liquid (Perkinelmer) scintillation counter. The ID50 values were obtained according to the following equation:
Ki values toward recombinant Fyn were calculated using the equation:
according to a competitive mechanism of inhibition toward ATP substrate, where [SATP] is the concentration of ATP. Curve fitting was performed with the program GraphPad Prism version 5.00.

For orientation: IC50 means the concentration at which inhibition is half-maximal. For the molecule `Cc1ccc(-c2nn(CC(Cl)c3ccccc3)c3ncnc(N)c23)cc1` (stereo not drawn) [Si309, 1-(2-Chloro-2-phenylethyl)-3-(4-methylphenyl)-1H-pyrazolo[3,4-d]pyrimidin-4-amine], the “cell toxicity in human normal fibroblasts” value in the data set with human normal fibroblasts is “did not showed any sign of cell toxicity”. Further, in the data set on K562 cells, the “IC50 for cell viability K562” value is given as “submicromolar range” and the IC50 stood at 0.3 ± 0.06 µM. Also, in data set [1], the “duration of inhibitory activity on Tau phosphorylation” value is recorded as “effective up to six hours” and the “Aβ42 induced Tyr18-Tau phosphorylation” value is listed as “significantly affected”.
As usually defined, the Papp is the rate of passage across a membrane or cell layer, normalised by area and donor concentration. Low readings indicate slow passage, high ones fast passage. As a reminder, the solubility is how much of the substance goes into solution per volume. A low value points to little dissolved substance. The solubility (thermodynamic) is solubility found after equilibrating the solid with the medium. As to `CN1CCN(CCOC(=O)N(c2cccc(Br)c2)c2nc(SCCN3CCOCC3)nc3c2cnn3CC(Cl)c2ccccc2)CC1` (stereo not drawn) [proSi306], in “PAMPA, BBB permeability”, the “PAMPA BBB (MR %)” value is “(42.0) %”. For the same molecule, the Papp at 5 h, 0.5 mM amounted to 2.91 ×10⁻⁶ cm/s in “PAMPA, BBB permeability” and 2.13 ×10⁻⁶ cm/s in [5] (PAMPA, pH 7.4). Further, the “brain concentration with respect to the drug” value in data set [2] was “higher brain concentration”. Moreover, the “Quantity of Compound, BLOOD” value in data set [2] (15′) was 10.7 ± 1.11 nmol of compound/g of tissue; in [2] (30′) it was 8.9 ± 1.22 nmol of compound/g of tissue; in [2] (1 h), 11.4 ± 1.29 nmol of compound/g of tissue; in [2] (2 h), 7.2 ± 2.17 nmol of compound/g of tissue; in [2] (4 h), 6.5 ± 0.58 nmol of compound/g of tissue; in [2] (8 h), 6.2 ± 2.07 nmol of compound/g of tissue. Besides, the “Quantity of Compound, BLOOD” value is recorded as 3.7 ± 0.60 nmol of compound/g of tissue in data set [2] (24 h) and 8.3 ± 2.21 nmol of compound/g of tissue in data set [2] ([…]). For the same molecule, the “Quantity of Compound, BRAIN” value in [2] (15′) was 5.3 ± 1.5 nmol of compound/g of tissue; in data set [2] (30′) it was 3.4 ± 0.33 nmol of compound/g of tissue; in data set [2] (1 h) it was 3.4 ± 2.24 nmol of compound/g of tissue; in data set [2] (2 h), 2.8 ± 0.60 nmol of compound/g of tissue; in data set [2] (4 h), 2.9 ± 1.38 nmol of compound/g of tissue; in data set [2] (8 h), 3.6 ± 2.12 nmol of compound/g of tissue. The “Quantity of Compound, BRAIN” value in data set [2] (24 h) is on record as 6.6 ± 1.08 nmol of compound/g of tissue; in data set [2] ([…]) it was 2.4 ± 0.24 nmol of compound/g of tissue. Further, the half-life at 500 μM in data set [3] (methanol, read-out: Stability MeOH t1/2) is above 48 h; in [3] (phosphate buffer, pH 7.4, read-out: Stability PBS pH 7.4 t1/2), above 48 h. Moreover, the “survival of mice respect to control group” value in the data set on U87 cells is “significant ability in prolonging survival”. In addition, the half-life at 100 μM in [4] is 3.48 h. In addition, the “PAMPA GI (MR %)” value in [5] is listed as “(45.5) %”. Moreover, the solubility at 24 h in “Water solubility assay” is 11.7 µM (≈ 8.74 µg/mL). The same molecule showed a solubility (thermodynamic) at 24 h in the data set “Water solubility assay” of 8.7 µg/mL (≈ 11.7 µM).
A word on the melting point: it is the temperature of the solid-liquid transition. What is called Ki is a dissociation constant, usually derived from enzyme kinetics or from competition with a known ligand. `Nc1ncnc2c1c(-c1ccc(Cl)cc1)nn2CC(Cl)c1ccccc1` (stereo not drawn) [Si308, 3-(4-Chlorophenyl)-1-(2-chloro-2-phenylethyl)-1H-pyrazolo[3,4-d]pyrimidin-4-amine] had a melting point of 150 to 151 °C. Further, in the data set on human normal fibroblasts, the “cell toxicity in human normal fibroblasts” value is reported as “did not showed any sign of cell toxicity”. Further, in the data set on K562 cells, the “IC50 for cell viability K562” value was “submicromolar range” and the half-inhibitory concentration (IC50) was determined as 0.56 ± 0.01 µM. Besides, in data set [1], the “duration of inhibitory activity on Tau phosphorylation” value is “effective up to six hours” and the “Aβ42 induced Tyr18-Tau phosphorylation” value was “significantly affected”. For the same molecule, the Ki on recombinant Fyn was found to be 95 nM. Moreover, the Ki on recombinant Fyn (read-out: Ki Fyn) worked out at 70 nM.
In the case of `Fc1ccccc1CNc1nc(SCCN2CCOCC2)nc2c1cnn2CCc1ccccc1`, the Ki at Recombinant human Src worked out at 0.17 µM. The IC50 in the data set on SH-SY5Y cells [6] was 63 µM.
With `CSc1nc(Nc2cccc(Cl)c2)c2cnn(CCc3ccccc3)c2n1` [Si214, N-(3-chlorophenyl)-6-(methylthio)-1-phenethyl-1H-pyrazolo[3,4-d]pyrimidin-4-amine], in the data set “PAMPA, BBB permeability”, the “PAMPA BBB (MR %)” value is “(55.7) %” and the apparent permeability (Papp) at 5 h, 0.5 mM came out at 1.48 ×10⁻⁶ cm/s. Moreover, the IC50 in the data set with SH-SY5Y cells [7] was 80 nM. Further, the “Metabolic Stab. %” value in data set [8] worked out at 99.0%. For the same molecule, the “PAMPA GI” value in data set [5] (Gastrointestinal PAMPA, Table 8) was 0 10^−6 cm · sec^−1. In addition, the “PAMPA GI (MR %)” value in data set [5] is given as “(78.0) %”.
